Series [1] in a line: Human liver microsome stability. Conditions: human, liver microsomes.
Series [2] deals with MDA-MB-231BR tumor bearing brain slices. The series can be described thus: Ex vivo tumor-brain slice model. The conditions noted are these: MDA-MB-231BR brain slices, 100 μM, 6 days, bioluminescence. The arrangement: species or system Nu/Nu mice. As to the method:
(§1) Ex vivo brain slice tumor model was performed as previously described ([Ciraku et al., 2021]). Briefly, Nu/Nu athymic 4–6 week old mice Charles River Laboratories (Wilmington, MA, United States) were immobilized using the Just for Mice Stereotaxic Frame (Harvard Apparatus, Holliston, MA, United States) and injected intracranially with 5uL of 20,000 cells/uL solution of luciferase tagged MDA-MB-231BR or 4T1BR cells. Tumor growth was monitored via bioluminescence imaging on the IVIS system (Perkin Elmer, Waltman, MA, United States). Organotypic hippocampal cultures were prepared as described previously ([Ciraku et al., 2021]). Briefly, adult mice (4–6 weeks) or mice after 12 days following intracranial injection were decapitated and their brains rapidly removed into ice-cold (4°C) sucrose-aCSF composed of the following (in mM): 280 sucrose, 5 KCl, 2 MgCl2, 1 CaCl2, 20 glucose, 10 HEPES, 5 Na^+-ascorbate, 3 thiourea, 2 Na^+-pyruvate; pH = 7.3. […] Tumor growth was monitored via bioluminescence imaging on the IVIS 200 system (Perkin Elmer), and results were analyzed using Living Image software (Caliper Life Sciences, Waltham, MA, United StatesUnited States). […] Tissues were incubated at 37 ℃ , 5% CO2 for 4 h, and absorbance at 490 nm was measured with a Tecan Spark Microplate reader.

The test system of series [3] is MDA-MB-231BR cells. The experiment in a line: Cell death by propidium iodide flow cytometry. It is filed as cell-based. Conditions: 100 μM, 48 h. As to the method: (§2) Cells were prepared according to manufacturer protocol (BD Pharmingen, Propidium Iodine). Briefly, cells were trypsinized (0.25% Trypsin), counted, washed twice with 1xPBS, and resuspended in 100uL 1X binding buffer incubated with 5 uL Propidium Iodine (PI) staining solution for 15 min in the dark at room temperature. Following incubation, the volume was brought up to 500uL of 1X binding buffer. Tubes were then analyzed using a Guava easyCyte flow cytometer. All data were collected and analyzed using a Guava EasyCyte Plus system and CytoSoft (version 5.3) software (Millipore). Data are gated and expressed relative to the appropriate unstained and single-stained controls.

In series [4] the test system is 4T1BR cells. The series can be described thus: Cell death by propidium iodide flow cytometry. It is filed as cell-based. The conditions noted are these: 100 μM, 48 hours. As to the method:
as §2

Series [5] deals with brain slices not containing tumors. The experiment in a line: MTS cell viability of brain slices without tumor. Conditions: 100 μM, day 6, MTS assay. Details: species or system mice. As to the method: as §1
A general note: Formazan colour is commonly taken as a measure of viable cells.

Series [6] has as its system MDA-MB-231BR cells. The experiment in a line: Intracranial MDA-MB-231BR tumor model in vivo. The arrangement: species or system Nu/Nu mice. As to the method: (§3) Intracranial injections were performed as previously described ([Ciraku et al., 2021]). Briefly, Nu/Nu or BalbC female 4–6 week old mice from Charles River Laboratories (Wilmington, MA, United States) were immobilized using the Just for Mice ™ Stereotaxic Frame (Harvard Apparatus, Holliston, MA, United States) and injected intracranially with 5 μL of a 20,000 cells/μL solution of MDA-MB-231BR or 4T1BR cells stably expressing luciferase. Mice were injected intraperitoneally with 30 mg/kg of Dluciferin solution (Caliper Life Sciences, Hopkinton, MA) and results analyzed using Living Image software (Caliper Life Sciences, Waltham, MA, United States). For in vivo analog trials, mice were weighed daily and injected intraperitoneally with 50 mg/kg of AD-8007. Mice were euthanized 3 weeks after injection following survivial or at the end of drug treatment at indiciated day. The animal study was reviewed and approved by the Institutional Animal Care and Use Committee.
(§4) Brains were dissected, fixed in 4% formalin and prepared for processing/sectioning/embedding/blocking to generate paraffin embedded slides. The slides containing brain metastatic tumors were deparaffinized by Xylene and subsequent rehydration was done by decreasing concentrations of ethanol-water mixture. Antigen retrieval was done by citrate buffer immersion and steaming the slides for 45 min. Tissue was treated with 200–400 ul 1% BSA+5% serum PBS solution for 1h. Primary incubation was done at 4 °C overnight using primary antibody anti-FasN (Cell Signaling Technologies, C20G5). Secondary antibody incubation was done for an hour at RT with HRP conjugated Anti-Rabbit Secondary antibody (Cell Signaling Technologies). at 1:100 dilution. For IHC the stain was developed using the DAB kit by Vectastain (Vector Labs, Burlingame, CA, United States). Finally, slides were mounted and imaged under a light microscope. H&E and Ki-67 staining were performed and assessed at TJU, Department of Pathology, Philadelphia, PA by board-certified pathologist.

Series [7] deals with 4T1BR cells. The experiment in a line: Intracranial 4T1BR tumor model in vivo. Details: species or system BalbC mice. As to the method:
as §3, §4

Results on one compound are retold here after PMC11137182, “Selective and brain-penetrant ACSS2 inhibitors target breast cancer brain metastatic cells” (Frontiers in Pharmacology, 2024).

SMILES strings stand for the structures. Some results are limits rather than exact numbers.

In the case of `N[C@H](C(=O)N1CCCC(c2ccccc2)(c2ccccc2)C1)C1CC1` [AD-8007], the CLint scaled (in general, the rate of metabolic loss divided by the concentration) in series [1] was less than 8.6 mL/min/kg. Moreover, the microsomal CLint – broadly, the rate of metabolic loss divided by the concentration – in series [1] was less than 9.6 µL/min/mg. The half-life (usually the time in which the quantity being followed falls by half) in series [1] (Human Liver Microsome Stability T1/2, human liver microsomes) is more than 145 min. Moreover, in series [2], the “tumor growth of preformed tumors ex vivo” value is reported as “significantly reduced tumor growth of preformed tumors”. For the same compound, the “cell death (PI+ cells)” value in series [3] and in series [4] was “significantly increased cell death” throughout. Moreover, the “cell viability of brain slices without tumor” value in series [5] is reported as “did not alter cell viability”. Further, the “tumor burden (bioluminescence)” value in series [6] (MDA-MB-231BR intracranial, 50 mg/kg daily, 14 days) is listed as “significantly reduced tumor burden”; in series [7] (4T1BR intracranial, immunecompetent mice, 10 days) it was “reduced tumor burden”. In series [6] (MDA-MB-231BR intracranial, 14 days post treatment), the “tumor burden and proliferation via H&E and Ki67 staining” value is “reduction in tumor burden and proliferation”. Further, the survival entry in series [6] (MDA-MB-231BR intracranial, drug withdrawn after treatment, Kaplan Meyer) was “significantly extended surivial”; in series [7] (4T1BR intracranial, Kaplan Meyer), “significantly extended survival”. Also, the “FASN staining in tumors” value in series [6] (MDA-MB-231BR tumors, 14 days treatment, IHC) is recorded as “reduced expression of FASN staining”. The body weight result in series [6] (immunodeficient mice, 50 mg/kg daily, 14 days) is “did not cause significant weight lost”; in series [7] (immunecompetent mice, 10 days) it was “did not cause significant weight lost”. Moreover, the Ki-67 staining result in series [7] (4T1BR intracranial, 10 days post treatment) is on record as “reduced Ki-67 staining”.
